Molecular target: T1, KRAS G12C 1-169, his-tagged protein, GDP-loaded (Homo sapiens, UniProt P01116, G12C)
T1 construct: KRAS G12C 1-169, his-tagged protein, GDP-loaded
Assay: Biochemical assay: covalent modification of KRAS G12C measured by mass spectrometry (RapidFire/TOF or Q-Exactive)
Format: binding
Settings: covalent binding to (modification of) KRAS G12C after a ten minute incubation period
Outline: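 Intact-mass readout (TOF or Q-Exactive, charge-envelope deconvolution) gives percent covalent adduct from modified and unmodified species. Compound at 10, 30 or 100 μM was incubated at room temperature for 10 min to 24 h with 2 μM or 0.5 μM GDP-bound KRAS G12C 1-169 in Hepes/NaCl/MgCl2 buffer, then acid-quenched.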

SMILES	Binding %
C=CC(=O)N1C[C@H](C)N(c2nc(N3CC(N(C)C)C3)nc3c(F)c(-c4cccc5occc45)c(Cl)cc23)C[C@H]1C [Compound 130, 1-((2R,5S)-4-(7-(benzofuran-4-yl)-6-chloro-2-(3-(dimethylamino)azetidin-1-yl)-8-fluoroquinazolin-4-yl)-2,5-dimethylpiperazin-1-yl)prop-2-en-1-one]	++ (++ indicates binding activity from 50 to 80%)
C=CC(=O)N1C[C@H](C)N(c2nc(N3CC(N(C)C)C3)nc3c(F)c(-c4c(C)ccc5ncn(C)c45)c(Cl)cc23)C[C@H]1C [Compound 132, 1-((2R,5S)-4-(6-chloro-7-(1,6-dimethyl-1H-benzo[d]imidazol-7-yl)-2-(3-(dimethylamino)azetidin-1-yl)-8-fluoroquinazolin-4-yl)-2,5-dimethylpiperazin-1-yl)prop-2-en-1-one]	+ (+ indicates binding activity greater than 0% and up to 50%)
C=CC(=O)N1C[C@H](C)N(c2nc(N3CC(N(C)C)C3)nc3c(F)c(-c4cccc5ccn(C)c45)c(Cl)cc23)C[C@H]1C [Compound 138, 1-((2R,5S)-4-(6-chloro-2-(3-(dimethylamino)azetidin-1-yl)-8-fluoro-7-(1-methyl-1H-indol-7-yl)quinazolin-4-yl)-2,5-dimethylpiperazin-1-yl)prop-2-en-1-one]	+++ (+++ indicates binding activity greater than 80%)
C=CC(=O)N1C[C@H](C)N(c2nc(N3CC(NC)C3)nc3c(F)c(-c4c(C)ccc5[nH]nc(C)c45)c(Cl)cc23)C[C@H]1C [Compound 140, 1-((2R,5S)-4-(6-chloro-7-(3,5-dimethyl-1H-indazol-4-yl)-8-fluoro-2-(3-(methylamino)azetidin-1-yl)quinazolin-4-yl)-2,5-dimethylpiperazin-1-yl)prop-2-en-1-one]	+++ (+++ indicates binding activity greater than 80%)
C=CC(=O)N1C[C@H](C)N(c2nc(N3CC(N(C)C)C3)nc3c(F)c(-c4c(F)ccc5cnn(C)c45)c(Cl)cc23)C[C@H]1C [Compound 145, 1-((2R,5S)-4-(6-chloro-2-(3-(dimethylamino)azetidin-1-yl)-8-fluoro-7-(6-fluoro-1-methyl-1H-indazol-7-yl)quinazolin-4-yl)-2,5-dimethylpiperazin-1-yl)prop-2-en-1-one]	+++ (+++ indicates binding activity greater than 80%)
C=CC(=O)N1C[C@H](C)N(c2nc(N3CC(NC)C3)nc3c(F)c(-c4c(C)ccc5cnn(C6CC6)c45)c(Cl)cc23)C[C@H]1C [Compound 148, 1-((2R,5S)-4-(6-chloro-7-(1-cyclopropyl-6-methyl-1H-indazol-7-yl)-8-fluoro-2-(3-(methylamino)azetidin-1-yl)quinazolin-4-yl)-2,5-dimethylpiperazin-1-yl)prop-2-en-1-one]	+++ (+++ indicates binding activity greater than 80%)
C=CC(=O)N1C[C@H](C)N(c2nc(N3CC(N(C)C)C3)nc3c(F)c(-c4cccc5snc(C)c45)c(Cl)cc23)C[C@H]1C [Compound 157, 1-((2R,5S)-4-(6-chloro-2-(3-(dimethylamino)azetidin-1-yl)-8-fluoro-7-(3-methylbenzo[d]isothia-zol-4-yl)quinazolin-4-yl)-2,5-dimethylpiperazin-1-yl)prop-2-en-1-one]	+++ (+++ indicates binding activity greater than 80%)
C=CC(=O)N1C[C@H](C)N(c2nc(N3CC(N(C)C)C3)nc3c(F)c(-c4cccc5c(Cl)n[nH]c45)c(Cl)cc23)C[C@H]1C [Compound 158, 1-((2R,5S)-4-(6-chloro-7-(3-chloro-1H-indazol-7-yl)-2-(3-(dimethylamino)azetidin-1-yl)-8-fluoroquinazolin-4-yl)-2,5-dimethylpiperazin-1-yl)prop-2-en-1-one]	++ (++ indicates binding activity from 50 to 80%)
C=CC(=O)N1C[C@H](C)N(c2nc(N3CC(N(C)C)C3)nc3c(F)c(-c4c(C(C)C)ccc5[nH]ncc45)c(Cl)cc23)C[C@H]1C [Compound 159, 1-((2R,5S)-4-(6-chloro-2-(3-(dimethylamino)azetidin-1-yl)-8-fluoro-7-(5-isopropyl-1H-indazol-4-yl)quinazolin-4-yl)-2,5-dimethylpiperazin-1-yl)prop-2-en-1-one]	+ (+ indicates binding activity greater than 0% and up to 50%)
C=CC(=O)N1C[C@H](C)N(c2nc(OC[C@H]3CCCN3C)nc3c(F)c(-c4c(C)ccc5[nH]nc(C6CC6)c45)c(Cl)cc23)C[C@H]1C [Compound 160, 1-((2R,5S)-4-(6-chloro-7-(3-cyclopropyl-5-methyl-1H-indazol-4-yl)-8-fluoro-2-(((R)-1-methylpyrrolidin-2-yl)methoxy)quinazolin-4-yl)-2,5-dimethylpiperazin-1-yl)prop-2-en-1-one]	+++ (+++ indicates binding activity greater than 80%)
C=CC(=O)N1C[C@H](C)N(c2nc(OC[C@H]3CCCN3C)nc3c(F)c(-c4c(C)ccc5[nH]nc(C)c45)c(Cl)cc23)C[C@H]1C [Compound 161, 1-((2R,5S)-4-(6-chloro-7-(3,5-dimethyl-1H-indazol-4-yl)-8-fluoro-2-(((R)-1-methylpyrrolidin-2-yl)methoxy)quinazolin-4-yl)-2,5-dimethylpiperazin-1-yl)prop-2-en-1-one]	+++ (+++ indicates binding activity greater than 80%)
C=CC(=O)N1C[C@H](C)N(c2nc(OC[C@@H]3CCCN3C)nc3c(F)c(-c4c(C)ccc5[nH]nc(C)c45)c(Cl)cc23)C[C@H]1C [Compound 162, 1-((2R,5S)-4-(6-chloro-7-(3,5-dimethyl-1H-indazol-4-yl)-8-fluoro-2-(((S)-1-methylpyrrolidin-2-yl)methoxy)quinazolin-4-yl)-2,5-dimethylpiperazin-1-yl)prop-2-en-1-one]	+++ (+++ indicates binding activity greater than 80%)
C=CC(=O)N1C[C@H](C)N(c2nc(OCCN3CCC(F)CC3)nc3c(F)c(-c4c(C)ccc5[nH]nc(C)c45)c(Cl)cc23)C[C@H]1C [Compound 163, 1-((2R,5S)-4-((S)-6-chloro-7-(3,5-dimethyl-1H-indazol-4-yl)-8-fluoro-2-(2-(4-fluoropiperidin-1-yl)ethoxy)quinazolin-4-yl)-2,5-dimethylpiperazin-1-yl)prop-2-en-1-one]	+ (+ indicates binding activity greater than 0% and up to 50%)
C=CC(=O)N1C[C@H](C)N(c2nc(OCCN3CCC(F)CC3)nc3c(F)c(-c4c(C)ccc5[nH]nc(C)c45)c(Cl)cc23)C[C@H]1C [Compound 164, 1-((2R,5S)-4-((R)-6-chloro-7-(3,5-dimethyl-1H-indazol-4-yl)-8-fluoro-2-(2-(4-fluoropiperidin-1-yl)ethoxy)quinazolin-4-yl)-2,5-dimethylpiperazin-1-yl)prop-2-en-1-one]	+++ (+++ indicates binding activity greater than 80%)
C=CC(=O)N1CCN(c2nc(N3CC(N(C)C)C3)nc3c(F)c(-c4c(C)ccc5[nH]nc(N)c45)c(Cl)cc23)C[C@H]1C [Compound 165, 1-((2R)-4-(7-(3-amino-5-methyl-1H-indazol-4-yl)-6-chloro-2-(3-(dimethylamino)azetidin-1-yl)-8-fluoroquinazolin-4-yl)-2-methylpiperazin-1-yl)prop-2-en-1-one]	+++ (+++ indicates binding activity greater than 80%)
C=CC(=O)N1C[C@H](C)N(c2nc(N3CC(N(C)C)C3)nc3c(F)c(-c4c(C)ccc5cnn(C)c45)c(C(F)(F)F)cc23)C[C@H]1C [Compound 171, 1-((2R,5S)-4-(7-(1,6-dimethyl-1H-indazol-7-yl)-2-(3-(dimethylamino)azetidin-1-yl)-8-fluoro-6-(trifluoromethyl)quina-zolin-4-yl)-2,5-dimethylpiperazin-1-yl)prop-2-en-1-one]	+++ (+++ indicates binding activity greater than 80%)
C=CC(=O)N1C[C@H](C)N(c2nc(OC[C@H]3CCCN3C)nc3c(F)c(-c4c(C)ccc5[nH]nc(C6CC6)c45)c(Cl)cc23)C[C@H]1C [Compound 172, 1-((2R,5S)-4-(6-chloro-7-(3-cyclopropyl-5-methyl-1H-indazol-4-yl)-8-fluoro-2-(((R)-1-methylpyrroldiin-2-yl)methoxy)quinazolin-4-yl)-2,5-dimethylpiperazin-1-yl)prop-2-en-1-one]	+++ (+++ indicates binding activity greater than 80%)
C=CC(=O)N1C[C@H](C)N(c2nc(N3CC(N(C)C)C3)nc3c(F)c(-c4c(C)ccc5cnn(C6CC6)c45)c(C(F)(F)F)cc23)C[C@H]1C [Compound 173, 1-((2R,5S)-4-(7-(1-cyclopropyl-6-methyl-1H-indazol-7-yl)-2-(3-(dimethylamino)azetidin-1-yl)-8-fluoro-6-(trifluoromethyl)quina-zolin-4-yl)-2,5-dimethylpiperazin-1-yl)prop-2-en-1-one]	+++ (+++ indicates binding activity greater than 80%)
C=CC(=O)N1C[C@H](C)N(c2nc(OC[C@@H]3CCN(C)C3)nc3c(F)c(-c4c(C)ccc5cnn(C)c45)c(Cl)cc23)C[C@H]1C [Compound 174, 1-((2R,5S)-4-(6-chloro-7-(1,6-dimethyl-1H-indazol-7-yl)-8-fluoro-2-(((R)-1-methylpyrrolidin-3-yl)methoxy)quinazolin-4-yl)-2,5-dimethylpiperazin-1-yl)prop-2-en-1-one]	+++ (+++ indicates binding activity greater than 80%)
C=CC(=O)N1C[C@H](C)N(c2nc(OC[C@@H]3CCN(C)C3)nc3c(F)c(-c4c(C)ccc5[nH]nc(C)c45)c(Cl)cc23)C[C@H]1C [Compound 175, 1-((2R,5S)-4-(6-chloro-7-(3,5-dimethyl-1H-indazol-4-yl)-8-fluoro-2-(((R)-1-methylpyrrolidin-3-yl)methoxy)quinazolin-4-yl)-2,5-dimethylpiperazin-1-yl)prop-2-en-1-one]	++ (++ indicates binding activity from 50 to 80%)

Reference: patent publication US11377441B2, “Covalent inhibitors of KRAS” (Araxes Pharma LLC, priority 2017, dated 2022)
